Structures can show the parent of a compound that is named as a salt. Where two headings read alike, the source gives them in different places.
Molecular target: T1, Tau P301L (Homo sapiens, UniProt P10636, P618L)
T1 construct: expressed in transfected cells
Experiment: In vitro tau degradation assay in CHOK1 Tau P301L cells (sarkosyl insoluble tau, WES)
Type: cell-based
Details: CHO-K1, relative to DMSO doxycycline control, read-out: Tau Protein Degradation effect at 1 μM
Procedure: Exemplary bifunctional molecules of the present disclosure are represented by the structures in Table 1, which includes associated data. In vitro tau protein degradation data in CHOK1 Tau P301L cells, as described below, is reported based on the remaining tau protein in the sarkosyl insoluble pellet following treatment of cells for 48 hours with test compound at the 1 μM concentration where the last 24 hours doxycycline was removed. The data are represented relative to DMSO doxycycline control: • A ≤50% of tau protein remaining (>50% of tau protein degraded) • B >50% of tau protein remaining ([…] of tau protein degraded)
Data for compounds in Table 1 was generated using in vitro tau Degradation Assay protocol as described in Methods for FIGS. 2A and 2B below.
FIGS. 2A and 2B. (2A) Tau expression was induced by addition (+) of doxycycline (1 μg/ml) to ChoK1-Tau P301L clone D1.
In vitro tau Degradation Assay for FIGS. 2A and 2B. T-Rex CHOK1 cells are maintained in Ham's F-12 Nutrient Mix (ThermoFisher) plus 10% Fetal Bovine Serum Tetracycline Negative (Corning) with 10 ug/mL Blasticidin S HCl (Gibco) and 200 ug/mL Zeocin (100 mg/mL, Invitrogen). A stable clone expressing Tau P301L in the presence of doxycycline (1 μg/ml), clone D1 was selected. Compounds were diluted to indicated concentrations and used to treat cells for the indicated times. Cells were harvested from either 96, 24, 6, or 10 cm dishes coated with Poly-D-Lysine (Corning) in ice cold PBS or Buffer H+HALT Protease and phosphatase inhibitors (Thermofisher). Sarkosyl Insoluble tau was isolated as described in Eckermann et al. and Greenberg and Davies, accordingly. WES™ capillary electrophoresis analysis was performed on the Sarkosyl Insoluble tau fraction using Tau1 antibody (Milipore) unless otherwise indicated, as specified in the manufacturers specification (ProteinSimple).

[1] = remaining tau protein in sarkosyl insoluble pellet, CHOK1 Tau P301L cells treated 48 hours with test compound at 1 μM, doxycycline removed for the last 24 hours

T1 sequence (P10636 1-441 isoform P10636-8 P301L): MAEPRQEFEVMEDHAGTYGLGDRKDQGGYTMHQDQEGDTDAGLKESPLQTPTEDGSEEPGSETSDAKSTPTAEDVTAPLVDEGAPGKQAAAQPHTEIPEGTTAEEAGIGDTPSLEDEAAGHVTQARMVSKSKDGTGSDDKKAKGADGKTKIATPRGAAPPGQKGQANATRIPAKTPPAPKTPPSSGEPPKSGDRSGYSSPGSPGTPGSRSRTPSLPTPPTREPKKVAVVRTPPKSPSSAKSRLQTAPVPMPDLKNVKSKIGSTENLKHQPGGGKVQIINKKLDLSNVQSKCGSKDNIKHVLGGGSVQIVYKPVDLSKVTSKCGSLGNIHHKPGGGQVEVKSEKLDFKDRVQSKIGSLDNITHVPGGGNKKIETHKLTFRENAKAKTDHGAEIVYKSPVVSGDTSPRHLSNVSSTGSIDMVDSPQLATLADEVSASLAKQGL

| Compound | remaining activity at 1 µM [1] [%] | remaining activity at 1 µM (CHOK1 Tau P301L cells, remaining tau in sarkosyl insoluble pellet, 48 hours with test compound at 1 μM, doxycycline removed for last 24 hours) [%] |
| --- | --- | --- |
| O=C1CCC(N2C(=O)c3ccc(OCCCCCN4CCC(OC5CN(c6ncc(-c7ccc8c9cnccc9n(C(F)F)c8c7)cc6C(F)(F)F)C5)CC4)cc3C2=O)C(=O)N1 (stereo not drawn) [Compound 442, 5-[5-[14-[1-[5-[5-(Difluoromethyl)pyrido[4,3-b]indol-7-yl]-3-(trifluoromethyl)-2-pyridyl]azetidin-3-yl]oxy-1-piperidyl]pentoxy]-2-(2,6-dioxo-3-piperidyl)isoindoline-1,3-dione formate] | < 50 | – |
| O=C1CCC(N2C(=O)c3ccc(OCCOCCOCCOCCOc4ccc5cc(-n6ccc7ccncc76)ncc5c4)cc3C2=O)C(=O)N1 (stereo not drawn) [Compound 384, 5-(2-(2-(2-(2-((3-(1H-pyrrolo[2,3-c]pyridin-1-yl)isoquinolin-7-yl)oxy)ethoxy)ethoxy)ethoxy)ethoxy)-2-(2,6-dioxopiperidin-3-yl)isoindoline-1,3-dione] | > 50 | – |
| Cc1ccc(-c2cn3ccc(N4CCC(CCN5CCN(c6ccc7c(c6)C(=O)N(C6CCC(=O)NC6=O)C7=O)CC5)CC4)cc3n2)cc1 (stereo not drawn) [Compound 558, 2-(2,6-dioxopiperidin-3-yl)-5-(4-(2-(1-(2-(p-tolyl)imidazo[1,2-a]pyridin-7-yl)piperidin-4-yl)ethyl)piperazin-1-yl)isoindoline-1,3-dione] | < 50 | – |
| Cn1c2ccncc2c2ccc(-c3ccc(O[C@H]4C[C@H](OCCCN5CCN(c6ccc7c(c6)C(=O)N(C6CCC(=O)NC6=O)C7=O)CC5)C4)nc3)cc21 (stereo partly drawn) [Compound 343, 2-(2,6-dioxopiperidin-3-yl)-5-(4-(3-((1r,3r)-3-((5-(5-methyl-5H-pyrido[4,3-b]indol-7-yl)pyridin-2-yl)oxy)cyclobutoxy)propyl)piperazin-1-yl)isoindoline-1,3-dione] | < 50 | – |
| Cc1ncsc1-c1ccc([C@H](C)NC(=O)[C@@H]2C[C@@H](O)CN2C(=O)[C@H](c2cc(OCCCCCN3CCC(O[C@H]4C[C@H](Oc5ccc(-c6ccc7c8cnccc8n(C)c7c6)cn5)C4)CC3)no2)C(C)C)cc1 [Compound 378, (2S,4R)-4-hydroxy-1-((S)-3-methyl-2-(3-((5-(4-((1r,3r)-3-((5-(5-methyl-5H-pyrido[4,3-b]indol-7-yl)pyridin-2-yl)oxy)cyclobutoxy)piperidin-1-yl)pentyl)oxy)isoxazol-5-yl)butanoyl)-N-((S)-1-(4-(4-methylthiazol-5-yl)phenyl)ethyl) pyrrolidine-2-carboxamide] | > 50 | – |
| O=C1CCC(N2C(=O)c3ccc(N4CCC(CCN5CCN(C6CCN(c7ccc8c9cnccc9n(C(F)F)c8c7)CC6)CC5)CC4)cc3C2=O)C(=O)N1 (stereo not drawn) [Compound 633, 5-(4-(2-(4-(1-(5-(difluoromethyl)-5H-pyrido[4,3-b]indol-7-yl)piperidin-4-yl)piperazin-1-yl)ethyl)piperidin-1-yl)-2-(2,6-dioxopiperidin-3-yl)isoindoline-1,3-dione] | – | < 50 |
| Cn1c2ccncc2c2ccc(-c3ccc(O[C@H]4C[C@H](Oc5ccc(C#CCN6CC(Oc7ccc8c(c7)CN(C7CCC(=O)NC7=O)C8=O)C6)nc5)C4)nc3)cc21 (stereo partly drawn) [Compound 340, 3-(5-((1-(3-(5-((1r,3r)-3-((5-(5-methyl-5H-pyrido[4,3-b]indol-7-yl)pyridin-2-yl)oxy)cyclobutoxy)pyridin-2-yl)prop-2-yn-1-yl)azetidin-3-yl)oxy)-1-oxoisoindolin-2-yl)piperidine-2,6-dione] | > 50 | – |
| O=C1CCC(N2C(=O)c3ccc(N4CCN(CCC5CCN(c6cc7ccn(-c8cc9cc(F)ccc9cn8)c7cn6)CC5)CC4)cc3C2=O)C(=O)N1 (stereo not drawn) [Compound 598, 2-(2,6-dioxopiperidin-3-yl)-5-(4-(2-(1-(1-(6-fluoroisoquinolin-3-yl)-1H-pyrrolo[2,3-c]pyridin-5-yl)piperidin-4-yl)ethyl)piperazin-1-yl)isoindoline-1,3-dione] | < 50 | – |

Continued, values first:

| remaining activity at 1 µM [1] [%] | remaining activity at 1 µM (CHOK1 Tau P301L cells, remaining tau in sarkosyl insoluble pellet, 48 hours with test compound at 1 μM, doxycycline removed for last 24 hours) [%] | Compound |
| --- | --- | --- |
| < 50 | – | O=C1CCC(N2C(=O)c3ccc(N4CCN(CCC5CCN(c6ncc(-c7ccc8c9cnccc9n(CC(F)(F)F)c8n7)cc6F)CC5)CC4)cc3C2=O)C(=O)N1 (stereo not drawn) [Compound 673, 2-(2,6-dioxopiperidin-3-yl)-5-(4-(2-(1-(3-fluoro-5-(9-(2,2,2-trifluoroethyl)-9H-pyrrolo[2,3-b:4,5-c′]dipyridin-2-yl)pyridin-2-yl)piperidin-4-yl)ethyl)piperazin-1-yl)isoindoline-1,3-dione] |
| < 50 | – | O=C1CCC(N2C(=O)c3ccc(N4CCN(CCC5CCN(c6ncc(-c7ccc8c9cncc(F)c9n(C(F)F)c8c7)cc6F)CC5)CC4)cc3C2=O)C(=O)N1 (stereo not drawn) [Compound 652, 5-(4-(2-(1-(5-(5-(difluoromethyl)-4-fluoro-5H-pyrido[4,3-b]indol-7-yl)-3-fluoropyridin-2-yl)piperidin-4-yl)ethyl)piperazin-1-yl)-2-(2,6-dioxopiperidin-3-yl)isoindoline-1,3-dione] |
| < 50 | – | Cc1cc2c(cn1)c1ccc(-c3cnc(N4CCC(CCN5CCN(c6ccc7c(c6)C(=O)N(C6CCC(=O)NC6=O)C7=O)CC5)CC4)c(F)c3)cc1n2C (stereo not drawn) [Compound 561, 5-(4-(2-(1-(5-(3,5-dimethyl-5H-pyrido[4,3-b]indol-7-yl)-3-fluoropyridin-2-yl)piperidin-4-yl)ethyl)piperazin-1-yl)-2-(2,6-dioxopiperidin-3-yl)isoindoline-1,3-dione] |
| < 50 | – | Cn1c2ccncc2c2ccc(-c3ccc(C4CCN(CCC5CCN(c6ccc7c(c6)C(=O)N(C6CCC(=O)NC6=O)C7=O)CC5)CC4)nc3)cc21 (stereo not drawn) [Compound 508, 2-(2,6-dioxopiperidin-3-yl)-5-(4-(2-(4-(5-(5-methyl-5H-pyrido[4,3-b]indol-7-yl)pyridin-2-yl)piperidin-1-yl)ethyl)piperidin-1-yl)isoindoline-1,3-dione] |
| > 50 | – | Cn1c2ccncc2c2ccc(-c3ccc(O[C@H]4C[C@H](N(C)C5CC6(C5)CN(CCOc5ccc7c(c5)C(=O)N(C5CCC(=O)NC5=O)C7=O)C6)C4)nc3)cc21 (stereo partly drawn) [Compound 392, 2-(2,6-dioxopiperidin-3-yl)-5-(2-(6-(methyl((1r,3r)-3-((5-(5-methyl-5H-pyrido[4,3-b]indol-7-yl)pyridin-2-yl)oxy)cyclobutyl)amino)-2-azaspiro[3.3]heptan-2-yl)ethoxy) isindoline-1,3-dione] |
| < 50 | – | O=C1CCC(N2C(=O)c3ccc(OCCN4CC5(C4)CN(C[C@H]4C[C@H](Oc6ccc(-c7ccn8c(n7)nc7ccccc78)cn6)C4)C5)cc3C2=O)C(=O)N1 (stereo partly drawn) [Compound 473, 5-(2-(6-(((1r,3r)-3-((5-(benzo[4,5]imidazo[1,2-a]pyrimidin-2-yl)pyridin-2-yl)oxy)cyclobutyl)methyl)-2,6-diazaspiro[3.3]heptan-2-yl)ethoxy)-2-(2,6-dioxopiperidin-3-yl)isoindoline-1,3-dione] |
| < 50 | – | CN(C)c1cccc2cnc(-n3ccc4cc(N5CCC(CCN6CCN(c7ccc8c(c7)C(=O)N(C7CCC(=O)NC7=O)C8=O)CC6)CC5)ncc43)cc12 (stereo not drawn) [Compound 512, 5-(4-(2-(1-(1-(5-(dimethylamino)iso-quinolin-3-yl)-1H-pyrrolo[2,3-c]pyridin-5-yl)piperidin-4-yl)ethyl)piperazin-1-yl)-2-(2,6-dioxopiperidin-3-yl)isoindoline-1,3-dione] |
